Laboratory results published in patent US8119695B2, “Compounds and methods for treating breast cancer and other diseases” (City of Hope, priority 2003, dated 2012).
Like-named read-outs stand apart in the source and are kept apart here.

Key:
Type in all cases: cell-based
[1] = system: MH100x4; test: MH100x4 luciferase reporter without receptor; details: Table 2, dose 5 (unit not given); for Reporter Activity: None 0.49; for Fold Activation: None 1.00
Excerpt: (§1) MH100x4 is a luciferase reporter with four copies of a GAL4 […] response element. GAL-L refers to the ligand-binding domain of the indicated receptor fused to the C-terminus of the GAL4 DNA binding domain.

[2] = molecular target: T1, ERRβ (GAL-L-ERRb) (Homo sapiens, UniProt O95718); test: MH100x4 luciferase reporter with GAL-L-ERRb; design: Reporter Activity: unit not given here; details: for inhibition of the activity of ERRβ: result in words
T1 construct: expressed in transfected cells
T1 sequence (O95718 208-432 limits assumed): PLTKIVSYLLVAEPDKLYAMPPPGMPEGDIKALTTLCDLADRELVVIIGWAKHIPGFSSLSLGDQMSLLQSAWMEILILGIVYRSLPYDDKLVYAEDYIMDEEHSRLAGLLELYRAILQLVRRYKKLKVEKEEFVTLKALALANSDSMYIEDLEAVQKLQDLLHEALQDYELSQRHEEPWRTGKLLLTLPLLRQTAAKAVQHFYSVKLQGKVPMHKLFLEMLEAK
Excerpt: as §1

[3] = system: ERRα (GAL-ERRa); test: MH100x4 luciferase reporter with GAL-ERRa; design: Reporter Activity: unit not given here
Excerpt: as §1

[4] = system: ERRγ (GAL-ERRg); test: MH100x4 luciferase reporter with GAL-ERRg; design: Reporter Activity: unit not given here; details: for inhibition of the activity of ERRγ: result in words
Excerpt: as §1

[5] = system: ERE-TK-luc; test: ERE-TK-luc reporter without receptor, E2 100 nM
[6] = Table 2, dose 5 (unit not given), None 1.00
[7] = Table 2, dose 5 (unit not given), None 1.44
[8] = Table 2, dose 5 (unit not given), None 8.54
[9] = Table 2, dose 5 (unit not given), None 1.25
[10] = Table 3, dose 2.5 (unit not given), None 1
[11] = Table 3, dose 2.5 (unit not given), None 2.38
[12] = Table 3, dose 2.5 (unit not given), None 8.18
[13] = Table 3, dose 2.5 (unit not given), None 2.2

| Compound | Reporter Activity [1] | Fold Activation [1] | Fold Activation [2, 6] | Reporter Activity [2, 7] | Fold Activation [3, 6] | Reporter Activity [3, 8] | Fold Activation [4, 6] | Reporter Activity [4, 9] | Fold Activation [2, 10] | Reporter Activity [2, 11] | Fold Activation [3, 10] | Reporter Activity [3, 12] | Fold Activation [4, 10] | Reporter Activity [4, 13] | also measured |
| --- | --- | --- | --- | --- | --- | --- | --- | --- | --- | --- | --- | --- | --- | --- | --- |
| C=CCOc1ccc(C(CC)=C(CC)c2ccc(OCC=C)cc2)cc1 [DY20] | 0.35 | 0.71 | 0.70 | 1.01 | 0.75 | 6.39 | 0.81 | 1.01 |  |  |  |  |  |  |  |
| C=CCOc1ccc(C(CC)=C(CC)c2ccc(O)c(CC=C)c2)cc1 [DY21] | 0.31 | 0.63 | 0.45 | 0.65 | 0.51 | 4.34 | 0.57 | 0.71 |  |  |  |  |  |  |  |
| C=CCc1cc(C(CC)=C(CC)c2ccc(O)c(CC=C)c2)ccc1O [DY22] | 0.28 | 0.57 | 0.44 | 0.64 | 0.39 | 3.35 | 0.50 | 0.63 |  |  |  |  |  |  |  |
| CCC(=C(c1ccc(OC2CCCCO2)cc1)c1ccc(OC2CCCCO2)cc1)c1ccccc1 (stereo not shown) [DY26] |  |  |  |  |  |  |  |  | 1.01 | 2.4 | 1.15 | 9.38 | 0.99 | 2.17 |  |
| CC/C(=C(/c1ccc(OCCN(C)C)cc1)c1ccc(OC(C)=O)cc1)c1ccccc1 [DY28, (E,Z)-4-{1-[4-(2-dimethylamino-ethoxy)-phenyl]-2-phenyl-but-1-enyl}-phenyl acetate] |  |  |  |  |  |  |  |  | 0.08 | 0.2 | 0.99 | 8.08 | 0.11 | 0.25 | inhibition of the activity of ERRβ [2]: inhibit the activity; inhibition of the activity of ERRγ [4]: inhibit the activity |
| CN(C)CCOc1ccc(/C(=C(/CCCl)c2ccccc2)c2ccc(O)cc2)cc1 [DY33] |  |  |  |  |  |  |  |  |  |  |  |  |  | 0.58 |  |
| CC(C)/C(=C(\c1ccc(O)cc1)c1ccc(OCN(C)C)cc1)c1ccccc1 [DY35, (Z)-4-[1-(4-Dimethylaminomethoxy-phenyl)-3-methyl-2-phenyl-but-1-enyl]-phenol] |  |  |  |  |  |  |  |  | 0.14 | 0.34 | 0.78 | 6.38 | 0.15 | 0.34 | inhibition of the activity of ERRβ [2]: inhibit the activity; inhibition of the activity of ERRγ [4]: inhibit the activity |
| C[C@]12CC[C@@H]3c4ccc(O)cc4CC[C@H]3[C@@H]1CC[C@@H]2O [E2, estradiol, reference compound] |  |  |  |  |  |  |  |  |  |  |  |  |  |  | Reporter Activity [5]: 1.13; Reporter Activity ([5]; Table 6, E2 100 nM alone (no dose head), None 1.44): 1.2 |
